Assay [1] concerns RAW264.7 phosphorylated c-Jun (Ser63). Put plainly: RAW264.7 phosphorylated c-Jun whole cell assay. In kind it is cell-based. As to conditions: Mus musculus; cytological assay, activity level; lipopolysaccharide-activated RAW264.7 cells, phospho-c-Jun (Ser63) ELISA. The procedure: RAW264.7 (ATCC TIB-71) cells were purchased from BeNa Culture Collection and maintained in a high-glucose DMEM medium (Gibco) containing 10% fetal bovine serum (Gibco) and 1% penicillin-streptomycin (Gibco). All cells were cultured at 37° C. in 95% air and 5% CO2. All cells were seeded into 120 μL of cell culture medium in a 96-well plate at a density of 2×10^5 cells per well. The stock solution of compound (15 mM) was serially diluted in DMSO (Sigma) and further diluted in growth medium, and it was then added at 15 μL per well as a 10× concentrated solution, well mixed with the cells and incubated with the cells for 30 min. Concentration of the compound vehicle (DMSO) in each well was 0.2%. After incubation for 30 min, the cells were activated with […] lipopolysaccharide (Sigma). Lipopolysaccharide was added to the growth medium as a 10× concentrated solution at 15 μL per well. The cell plate was incubated for 1 h, and then all the medium was removed. The level of C-Jun protein with phosphorylation of serine at site 63 was measured using the whole cell lysate kit-phosphorylated C-Jun assay (PathScan® Phospho-c-Jun (Ser63) Sandwich ELISA Kit) (CST, 7145C) according to the manufacturer's instructions.

Another assay addresses T1, JNK1 kinase (Homo sapiens, UniProt P45983).
T1 construct: purchased Carna Biosciences 04-163
Put plainly: JNK1 activity screening (time-resolved fluorometric HTRF kinase assay). In kind it is biochemical. Particulars: enzymatic assay, activity level. The procedure: JNK1 activity screening. JNK1 activity was detected using a 96-well (Cisbio, 66PL96025) time-resolved fluorometric assay. The JNK1 assay was conducted in the following assay buffer: 10 mM MgCl2 (Sigma, M1028), 1 mM MnCl2 (Sigma, M1787), 1 mM DTT (Sigma, D0632) and 1× Enzymatic buffer/kinase (Cisbio, 62EZBFDC). By using the assay buffer, 3 μL of 0.1 ng/μL JNK1 kinase (Carna Biosciences, 04-163) was added to a 96-well microplate, and then 4 μL of a compound diluted appropriately (with a DMSO content of 2.5%) was added. The resulting mixture was incubated at room temperature for 0.5 h. To start the reaction, the assay buffer was used to mix 0.003 μM ATP (Aladdin, A7699) and 30 μM substrate ATF2-GST fusion (Cisbio, 64CUS000AFPEB), and 3 μL of the mixed solution was added to the microplate. The resulting mixture was incubated at room temperature for 2.5 h. HTRF detection buffer ([…], 62SDBRDD) was used then to prepare a mixture of 5 μg/mL MAb Anti GST-XL665 (Cisbio, 61GSTXLA) and 0.045 μg/mL PAb Anti-phospho ATF2-K (Cisbio, 61P12KAZ), and 10 μL of the mixture was added to the plate to terminate the reaction. After incubation for about 12 h, the plate was read on a Perkin-Elmer Envision reader.

T1 sequence (P45983 whole entry): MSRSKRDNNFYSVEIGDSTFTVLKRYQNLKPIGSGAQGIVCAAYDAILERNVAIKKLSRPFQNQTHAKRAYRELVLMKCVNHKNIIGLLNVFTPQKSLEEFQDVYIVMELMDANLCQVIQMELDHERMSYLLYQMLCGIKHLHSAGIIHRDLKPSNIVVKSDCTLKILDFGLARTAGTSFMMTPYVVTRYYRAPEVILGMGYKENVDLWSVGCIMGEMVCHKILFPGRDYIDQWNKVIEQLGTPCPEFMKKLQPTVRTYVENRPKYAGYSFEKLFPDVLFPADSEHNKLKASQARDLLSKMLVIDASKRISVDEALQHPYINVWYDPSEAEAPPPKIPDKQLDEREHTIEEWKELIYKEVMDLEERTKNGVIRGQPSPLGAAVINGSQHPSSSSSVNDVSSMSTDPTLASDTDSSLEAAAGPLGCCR

Regarding `C[C@@H]1CC[C@@H](Nc2nc(NC(C)(C)C)ncc2C(N)=S)C[C@H]1O` [Compound T001, 2-(tert-butylamino)-4-(((1R,3R,4R)-3-hydroxy-4-methylcyclohexyl)amino) pyrimidine-5-carbothioamide], the IC50 in assay [1] is 100 to 500 nM; against JNK1 kinase, under 100 nM.
On the same counts, the results for `C[C@@H]1CC[C@@H](Nc2nc(NC(C)(C)C)ncc2C#N)C[C@H]1O` [Compound T001A, 2-(tert-butylamino)-4-(((1R,3R,4R)-3-hydroxy-4-methylcyclohexyl)amino) pyrimidine-5-carbonitrile] are 100 to 500 nM and 100 to 500 nM.
As for `C[C@@H]1CC[C@@H](Nc2nc(NC(C)(C)C)ncc2/C(N)=N\O)C[C@H]1O` [Compound T002, (E)-2-(tert-butylamino)-N′-hydroxy-4-(((1R,3R,4R)-3-hydroxy-4-methylcyclohexyl)amino)pyrimidine-5-carboximidamide], the IC50 is 100 to 500 nM in assay [1] and under 100 nM against JNK1 kinase.
In the same order, the values of `C[C@@H]1CC[C@@H](Nc2nc(NC(C)(C)C)ncc2C(=N)N)C[C@H]1O` [Compound T003, 2-(tert-butylamino)-4-(((1R,3R,4R)-3-hydroxy-4-methylcyclohexyl)amino) pyrimidine-5-carboximidamide] are over 1000 nM and 500 to 1000 nM.
In the same order, the values of `C[C@@H]1CC[C@@H](Nc2nc(Nn3cnnc3)ncc2C(N)=O)C[C@H]1O` [Compound T004, 2-((4H-1,2,4-triazol-4-yl)amino)-4-(((1R, 3R,4R)-3-hydroxy-4-methylcyclohexyl)amino)pyrimidine-5-carboxamide] are over 1000 nM and over 1000 nM.
For the compound `C[C@@H]1CC[C@@H](Nc2nc(NC(C)(C)C)ncc2C(C)(C)O)C[C@H]1O` [Compound T005, (1R,2R,5R)-5-((2-(tert-butylamino)-5-(2-hydroxypropan-2-yl)pyrimidin-4-yl)amino)-2-methylcyclohexan-1-ol], the IC50 (in assay [1]; on JNK1 kinase) was over 1000 nM throughout.
For the compound `COC(=O)c1cnc(NC(C)(C)C)nc1N[C@@H]1CC[C@@H](C)[C@H](O)C1` [Compound T005A, Methyl 2-(tert-butylamino)-4-(((IR,3R,4R)-3-hydroxy-4-methylcyclohexyl)amino) pyrimidine-5-carboxylate], the IC50 (in assay [1]; on JNK1 kinase) was over 1000 nM throughout.
Consider `CC(C)(C)Nc1ncc(C(N)=O)c(N2CCC(O)CC2)n1` [Compound T006, 2-(tert-butylamino)-4-(4-hydroxypiperidin-l-yl)pyrimidine-5-carboxamide], for which the IC50 (in assay [1]; on JNK1 kinase) was over 1000 nM each time.
For the compound `CC(C)(C)Nc1ncc(C(N)=O)c(NC2CCCN(C(=O)CC#N)C2)n1` (stereo not shown) [Compound T007, 2-(tert-butylamino)-4-((1-(2-cyanoacetyl)piperidin-3-yl)amino)pyrimidine-5-carboxamide], the IC50 (in assay [1]; on JNK1 kinase) was over 1000 nM throughout.
With `CC(C)(C)Nc1ncc(C(N)=O)c(NC2CCCN(C(=O)CC(=O)O)C2)n1` (stereo not drawn) [Compound T008, 3-(3-((2-(tert-butylamino)-5-carbamoylpyrimidin-4-yl)amino)piperidin-l-yl)-3-oxopropanoic acid], the IC50 (in assay [1]; at JNK1 kinase) was over 1000 nM each time.
`CC(C)(C)Nc1ncc(C(N)=O)c(NCC2CCC(=O)N2)n1` (stereo not shown) [Compound T009, 2-(tert-butylamino)-4-(((5-oxopyrrolidin-2-yl)methyl)amino)pyrimidine-5-carboxamide]: the IC50 (in assay [1]; against JNK1 kinase) was over 1000 nM throughout.
For the compound `COc1ccc(Nc2ncc(C(N)=O)c(N[C@@H]3CC[C@@H](C)[C@H](O)C3)n2)cc1` [Compound T010, 4-(((1R,3R,4R)-3-hydroxy-4-methylcyclohexyl)amino)-2-((4-methoxyphenyl)amino) pyrimidine-5-carboxamide], the IC50 (in assay [1]; against JNK1 kinase) was under 100 nM each time.
For `CC(C)(C)Nc1ncc(C(N)=O)c(Nc2cccc(C(=O)O)c2)n1` [Compound T011, 3-((2-(tert-butylamino)-5-carbamoylpyrimidin-4-yl)amino) benzoic acid], the IC50 in assay [1] was over 1000 nM; against JNK1 kinase it was 500 to 1000 nM.
On the same counts, the results for `C[C@@H]1CC[C@@H](Nc2nc(NC(C)(C)C)ncc2F)C[C@H]1O` [Compound T012, (1R,2R,5R)-5-((2-(tert-butylamino)-5-fluoropyrimidin-4-yl)amino)-2-methylcyclohexan-1-ol] are over 1000 nM and over 1000 nM.
As for `C[C@@H]1CC[C@@H](Nc2nc(NC(C)(C)C)ncc2Cl)C[C@H]1O` [Compound T013, (1R,2R,5R)-5-((2-(tert-butylamino)-5-chloropyrimidin-4-yl)amino)-2-methylcyclohexan-1-ol], the half-inhibitory concentration (IC50) in assay [1] was over 1000 nM; at JNK1 kinase, 500 to 1000 nM.
Regarding `Cc1cnc(NC(C)(C)C)nc1N[C@@H]1CC[C@@H](C)[C@H](O)C1` [Compound T014, (1R,2R,5R)-5-((2-(tert-butylamino)-5-methylpyrimidin-4-yl)amino)-2-methylcyclohex-1-ol], the IC50 (in assay [1]; on JNK1 kinase) was over 1000 nM each time.
For the compound `C[C@@H]1CC[C@@H](Nc2nc(NC3CC4(COC4)C3)ncc2C(N)=O)C[C@H]1O` [Compound T015, 2-((2-oxaspiro[3.3]heptan-6-yl)amino)-4-(((1R,3R,4R)-3-hydroxy-4-methylcyclohexyl)amino)pyrimidine-5-carboxamide], the IC50 is 500 to 1000 nM in assay [1] and under 100 nM at JNK1 kinase.
Turning to `CC(C)(C)Nc1ncc(C(N)=O)c(NC2CCC(=O)NC2)n1` (stereo not shown) [Compound T016, 2-(tert-butylamino)-4-((6-oxopiperidin-3-yl)amino)pyrimidine-5-carboxamide], the IC50 is 500 to 1000 nM in assay [1] and under 100 nM on JNK1 kinase.
In the case of `CC(C)(C)Nc1ncc(C(N)=O)c(NC2CCC(=O)N(CCO)C2)n1` (stereo not drawn) [Compound T017, 2-(tert-butylamino)-4-((l-(2-hydroxyethyl)-6-oxopiperidin-3-yl)amino)pyrimidine-5-carboxamide], the IC50 in assay [1] is 500 to 1000 nM; against JNK1 kinase, under 100 nM.
`CC(C)(C)Nc1ncc(C(N)=O)c(N2CCCC(CO)C2)n1` (stereo not shown) [Compound T018, 2-(tert-butylamino)-4-(3-(hydroxymethyl)piperidin-1-yl)pyrimidine-5-carboxamide]: the 50% inhibitory concentration (IC50) in assay [1] fell in the range of 500 to 1000 nM; against JNK1 kinase, 100 to 500 nM.
In the same order, the values of `CC(C)(C)Nc1ncc(C(N)=O)c(N2CCC(CO)C2)n1` (stereo not shown) [Compound T019, 2-(tert-butylamino)-4-(3-(hydroxymethyl)pyrrolidin-1-yl)pyrimidine-5-carboxamide] are 500 to 1000 nM and 100 to 500 nM.
For `CC(C)(C)Nc1ncc(C(N)=O)c(N2CC(C(C)(C)O)C2)n1` [Compound T020, 2-(tert-butylamino)-4-(3-(2-hydroxypropan-2-yl)azetidin-1-yl) pyrimidine-5-carboxamide], the values for the 50% inhibitory concentration (IC50) (in assay [1]; at JNK1 kinase) were 500 to 1000 nM and 100 to 500 nM, respectively.
In the same order, the values of `CC(C)(C)Nc1ncc(C(N)=O)c(NC2CCCN(C(N)=O)C2)n1` (stereo not shown) [Compound T021, 2-(tert-butylamino)-4-((1-carbamoylpiperidin-3-yl)amino) pyrimidine-5-carboxamide] are over 1000 nM and 100 to 500 nM.
Take `C[C@@H]1CC[C@@H](Nc2nc(N3CCOCC3)ncc2C(N)=O)C[C@H]1O` [Compound T022, 4-(((1R,3R,4R)-3-hydroxy-4-methylcyclohexyl)amino)-2-morpholinopyrimidine-5-carboxamide]: the concentration for half-maximal inhibition (IC50) in assay [1] is over 1000 nM; on JNK1 kinase it was 500 to 1000 nM.
As to `C[C@@H]1CC[C@@H](Nc2nc(N3CCNC(=O)C3)ncc2C(N)=O)C[C@H]1O` [Compound T023, 4-(((1R,3R,4R)-3-hydroxy-4-methylcyclohexyl)amino)-2-(3-oxopiperazin-1-yl)pyrimidine-5-carboxamide], the IC50 in assay [1] is over 1000 nM; against JNK1 kinase it was 500 to 1000 nM.
On the same counts, the results for `CCNC(=O)N1CCC(Nc2ncc(C(N)=O)c(N[C@@H]3CC[C@@H](C)[C@H](O)C3)n2)CC1` [Compound T024, 2-((l-(ethylcarbamoyl)piperidin-4-yl)amino)-4-(((1R,3R,4R)-3-hydroxy-4-methylcyclohexyl)amino)pyrimidine-5-carboxamide] are 100 to 500 nM and under 100 nM.

Values taken from US20230104283A1, “JNK INHIBITOR, AND PHARMACEUTICAL COMPOSITION AND USE THEREOF” (WUHAN LL SCIENCE AND TECHNOLOGY DEVELOPMENT CO. , LTD, priority 2019, published 2023).
